Results taken from patent US9796753B2, “N-substituted indenoisoquinolines and syntheses thereof” (Purdue Research Foundation, priority 2005, dated 2017).
Read-outs that look alike come from different tables or passages of the source.

Key:
[1] = tested on: all human cancer cell lines successfully tested; test: NCI screen mean graph midpoint (MGM) for growth inhibition; assay type: cell-based; conditions: Table 6; for GI50's against various cell lines (in words): NCI60 cell lines; for MGM (mean GI50 across cell lines): all human cancer cell lines successfully tested, range 10^−8 to 10^−4 molar, with standard error
In short: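 NCI60 panel cells exposed to compound at 100, 10, 1, 0.1 and 0.01 μM for 48 h, then sulforhodamine B staining. Percentage growth versus control plotted against log concentration; MGM is the midpoint across all lines tested.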

colon HCT-116 = test: COMPARE screening (NCI human cancer cell line screen), cytotoxicity GI50; assay type: cell-based; conditions: Homo sapiens, HCT-116, 48 h, read-out: Cytotoxicity (GI50) Colon HCT-116
In short: (§1)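 Step one: incubate NCI60 cell lines 48 h with test agent (100–0.01 μM, tenfold steps). Step two: SRB dye treatment and OD reading. Step three: percentage growth relative to control plotted against log10 concentration.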

ovarian OVCAR-3 = test: as above; assay type: cell-based; conditions: Homo sapiens, OVCAR-3, 48 h, read-out: Cytotoxicity (GI50) Ovarian OVCAR-3
In short: as §1

prostate DU-145 = test: as above; assay type: cell-based; conditions: Homo sapiens, DU-145, 48 h, read-out: Cytotoxicity (GI50) prostate DU-145
In short: as §1

lung HOP-62 = test: as above; assay type: cell-based; conditions: Homo sapiens, HOP-62, 48 h, read-out: Cytotoxicity (GI50) lung HOP-62
In short: as §1

melanoma UACC-62 = test: as above; assay type: cell-based; conditions: Homo sapiens, UACC-62, 48 h, read-out: Cytotoxicity (GI50) melanoma UACC-62
In short: as §1

renal SN12C = test: as above; assay type: cell-based; conditions: Homo sapiens, SN12C, 48 h, read-out: Cytotoxicity (GI50) renal SN12C
In short: as §1

CNS SF-539 = test: as above; assay type: cell-based; conditions: Homo sapiens, CNSSF-539, 48 h, read-out: Cytotoxicity (GI50) CNS SF-539
In short: as §1

recombinant TDP1 = recombinant TDP1 (Homo sapiens, UniProt Q9NUW8); test: Gel-based assay measuring the inhibition of recombinant TDP1; assay type: biochemical; conditions: for IC50: Table 5, determined in duplicate
recombinant TDP1, sequence (Q9NUW8 whole entry): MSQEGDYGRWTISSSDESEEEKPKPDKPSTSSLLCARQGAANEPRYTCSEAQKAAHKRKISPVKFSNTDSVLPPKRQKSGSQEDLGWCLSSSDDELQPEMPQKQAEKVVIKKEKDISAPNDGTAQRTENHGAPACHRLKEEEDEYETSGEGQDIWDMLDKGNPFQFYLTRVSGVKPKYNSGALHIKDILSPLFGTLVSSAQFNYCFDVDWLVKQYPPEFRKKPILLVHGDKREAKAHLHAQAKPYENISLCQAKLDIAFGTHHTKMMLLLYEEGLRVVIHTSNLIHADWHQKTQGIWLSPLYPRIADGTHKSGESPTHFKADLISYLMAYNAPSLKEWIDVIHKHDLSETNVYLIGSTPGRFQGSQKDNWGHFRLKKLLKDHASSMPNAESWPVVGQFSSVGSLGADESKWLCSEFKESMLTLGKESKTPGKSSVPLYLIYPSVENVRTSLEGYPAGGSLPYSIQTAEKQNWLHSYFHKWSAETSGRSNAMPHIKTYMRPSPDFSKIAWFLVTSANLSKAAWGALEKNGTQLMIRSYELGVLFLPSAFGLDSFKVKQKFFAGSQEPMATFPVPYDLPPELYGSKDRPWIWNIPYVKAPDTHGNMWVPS
Experimental: A 5′-[^32P]-labeled single-stranded DNA oligonucleotide containing a 3′-phosphotyrosine (N14Y) was generated as described by Dexheimer et al. (J. Med. Chem. 2009, 52, 7122-7131). The DNA substrate was then incubated with 5 μM recombinant TDP1 in the absence or presence of inhibitor for 15 min at room temperature in a buffer containing 50 mM Tris HCl, pH 7.5, 80 mM KCl, 2 mM EDTA, 1 mM DTT, 40 μg/ml BSA and 0.01% Tween-20. Reactions were terminated by the addition of 1 volume of gel loading buffer [99.5% (v/v) formamide, 5 mM EDTA, 0.01% (w/v) xylene cyanol, and 0.01% (w/v) bromophenol blue]. Samples were subjected to a 16% denaturing PAGE and gels were exposed after drying to a PhosphorImager screen (GE Healthcare). Gel images were scanned using a Typhoon 8600 (GE Healthcare) and densitometric analyses were performed using the ImageQuant software (GE Healthcare).
The TDP1 inhibitory activities of the O-2-substituted indenoisoquinolines were measured by determining their abilities to inhibit the hydrolysis of the phosphodiester linkage between tyrosine and the 3′-end of a DNA oligonucleotide substrate and thus prevent the generation of an oligonucleotide with a free 3′-phosphate (N14P, Scheme 13). Therefore, the disappearance of the gel band for N14P indicates TDP1 inhibition.
Tyrosyl-DNA phosphodiesterase 1 (TDP1) is a DNA repair enzyme that repairs cytotoxic DNA damage induced by Top1 inhibitors.

Human recombinant Top1 = target: T1, Human recombinant Top1 (Homo sapiens, UniProt P11387); test: Topoisomerase 1-mediated DNA cleavage reactions (B), 117-bp DNA oligonucleotide; assay type: biochemical; set-up: key to Top1 inhibitory activity (level): 0, no detectable activity; +, weak activity; ++, similar activity to compound 33; +++, greater activity than 33; ++++, equipotent to 32; Ambiguous scores (e.g., between two values) are designated with parentheses (e.g., ++(+) would be between ++ and +++); key to Top1 (compound-induced DNA cleavage due to Top1 inhibition): 0, no detectable activity; +, weak activity; ++, similar activity to compound 5; +++, greater activity than 34; ++++ , equipotent to 32; The (+) ranking indicates the activity lies between two given values; conditions: Table 5; for Top1 inhibitory activity (level): relative to compounds 32 and 33; for Top1 (compound-induced DNA cleavage due to Top1 inhibition): semiquantitative scale relative to 1 μM camptothecin (32) or MJ-III-65 (34)
T1 construct: made in house
T1 sequence (P11387 1-765): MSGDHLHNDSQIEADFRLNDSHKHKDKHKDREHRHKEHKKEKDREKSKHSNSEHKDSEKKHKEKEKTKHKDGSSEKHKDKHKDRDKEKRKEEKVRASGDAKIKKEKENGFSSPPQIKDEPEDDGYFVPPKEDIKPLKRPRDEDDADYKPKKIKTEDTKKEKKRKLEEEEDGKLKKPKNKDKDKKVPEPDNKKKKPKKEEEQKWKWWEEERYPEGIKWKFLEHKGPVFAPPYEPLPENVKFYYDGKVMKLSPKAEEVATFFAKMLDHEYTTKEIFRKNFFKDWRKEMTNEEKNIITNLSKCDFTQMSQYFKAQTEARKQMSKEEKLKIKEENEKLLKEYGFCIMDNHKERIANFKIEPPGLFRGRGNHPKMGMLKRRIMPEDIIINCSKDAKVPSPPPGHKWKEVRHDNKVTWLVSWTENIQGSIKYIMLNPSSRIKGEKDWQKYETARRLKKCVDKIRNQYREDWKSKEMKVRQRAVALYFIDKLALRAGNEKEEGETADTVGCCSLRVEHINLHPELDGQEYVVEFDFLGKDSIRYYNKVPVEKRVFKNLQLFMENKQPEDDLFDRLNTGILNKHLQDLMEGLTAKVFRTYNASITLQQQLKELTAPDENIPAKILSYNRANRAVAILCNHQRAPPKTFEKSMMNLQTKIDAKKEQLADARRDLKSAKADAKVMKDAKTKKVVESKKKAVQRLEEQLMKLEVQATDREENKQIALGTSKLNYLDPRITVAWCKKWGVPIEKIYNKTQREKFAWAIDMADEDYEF
Experimental: Human recombinant Top1 was purified from baculovirus as described in Bailly, C. Curr. Med. Chem. 2000, 7, 39-58. DNA cleavage reactions were prepared as previously reported with the exception of the DNA substrate in Saltz, et al. Oncologist 1997, 2, 402-409.
Approximately 2 nM radiolabeled DNA substrate was incubated with recombinant Top1 in 20 μL of reaction buffer [10 mM Tris-HCl (pH 7.5), 50 mM KCl, 5 mM MgCl2, 0.1 mM EDTA, and 15 μg/mL BSA] at 25° C. for 20 min in the presence of various concentrations of compounds. […] Aliquots of each reaction mixture were subjected to 20% denaturing PAGE. Gels were dried and visualized using a phosphoimager and ImageQuant software (Molecular Dynamics).
All of the new indenoisoquinoline derivatives with C-2 side chains were tested in Top1-mediated DNA cleavage assays. For this purpose, a ^32P 3′-end labeled 117-bp DNA fragment was incubated with Top1 and four 10-fold dilutions starting from 100 μM of a tested compound. The DNA fragments were separated on 20% PAGE denaturing gels. The Top1 inhibitory activities were assigned on the basis of the visual inspection of the number and intensities of the gel bands corresponding to Top1-mediated DNA cleavage fragments. […] Ambiguous scores (e.g., between two values) are designated with parentheses (e.g., ++(+) would be between ++ and +++).

breast MCF-7 = test: NCI60 antiproliferative activity, cytotoxicity GI50; assay type: cell-based, human; conditions: Homo sapiens, MCF7, 48 h, read-out: Cytotoxicity (GI50) breast MCF-7
Experimental: Selected compounds were tested for antiproliferative activity in the National Cancer Institute's developmental therapeutics assay 60 cell line screen (NCI60). The cells were incubated with the tested compounds at 100, 10, 1, 0.1, and 0.01 μM concentrations for 48 h before treatment with sulforhodamine B dye. Optical densities were recorded, and their ratios relative to that of the control were plotted as percentage growth against the log 10 of the tested compound concentrations.

[2] = read-out: TDP1 (IC50, semiquantitative scale)
[3] = read-out: TDP1 inhibitory activity (potency score)

Row | SMILES | TDP1 inhibitory activity (in words) (recombinant TDP1) | IC50 (recombinant TDP1; [2]) | Top1 inhibitory activity (level) (Human recombinant Top1) | Top1 (compound-induced DNA cleavage due to Top1 inhibition) (Human recombinant Top1) | IC50 (recombinant TDP1; [3]) | melting point | GI50's against various cell lines (in words) [1] | MGM (mean GI50 across cell lines) [1] | GI50 (colon HCT-116) | GI50 (ovarian OVCAR-3) | GI50 (prostate DU-145) | GI50 (lung HOP-62) | GI50 (melanoma UACC-62) | GI50 (renal SN12C) | GI50 (CNS SF-539) | GI50 (breast MCF-7)
1 | COc1cc2c(=O)n(CCCN3CCOCC3)c3c(c2cc1OCCCN)C(=O)c1cc2c(cc1-3)OCO2 [Compound 22, 2-(3-Aminopropoxy)-3-methoxy-6-(3-morpholinopropyl)-5H-[1,3]dioxolo [4′,5′:5,6]indeno[1,2-c]isoquinoline-5,12(6H)-dione] | – | 37000 to 111000 nM | – | – | – | > 350 °C | submicromolar | 500 ± 92 nM | 200 nM | 400 nM | 300 nM | 300 nM | 300 nM | 300 nM | 200 nM | 200 nM
2 | COc1cc2c(=O)n(CCCN3CCOCC3)c3c(c2cc1OCCCN1CCCC1)C(=O)c1cc2c(cc1-3)OCO2 [Compound 28, 3-Methoxy-6-(3-morpholinopropyl)-2-(3-(pyrrolidin-1-yl)propoxy)-5H-[1,3]dioxolo[4′,5′:5,6]indeno[1,2-c]isoquinoline-5,12(6H)-dione] | – | 1000 to 37000 nM | ++ | ++ | 1000 to 37000 nM | – | – | 600 ± 370 nM | 200 nM | 1200 nM | 40 nM | 200 nM | 300 nM | 200 nM | 200 nM | 100 nM
3 | COC(=O)COc1cc2c3c(n(CCCN4CCOCC4)c(=O)c2cc1OC)-c1cc2c(cc1C3=O)OCO2 [Compound 29, Methyl 2-((3-Methoxy-6-(3-morpholinopropyl)-5,12-dioxo-6,12-dihydro-5H-[1,3]dioxolo[4′,5′:5,6]indeno[1,2-c]isoquinolin-2-yl)oxy)acetate] | – | > 111000 nM | + or ++ | ++ | – | – | low micromolar | 3100 ± 1200 nM | 1100 nM | 5800 nM | 900 nM | 100 nM | 1000 nM | 800 nM | 100 nM | 400 nM

Further lines, with some results ahead:

Row | TDP1 inhibitory activity (in words) (recombinant TDP1) | IC50 (recombinant TDP1; [2]) | Top1 inhibitory activity (level) (Human recombinant Top1) | Top1 (compound-induced DNA cleavage due to Top1 inhibition) (Human recombinant Top1) | IC50 (recombinant TDP1; [3]) | melting point | SMILES | GI50's against various cell lines (in words) [1] | MGM (mean GI50 across cell lines) [1] | GI50 (colon HCT-116) | GI50 (ovarian OVCAR-3) | GI50 (prostate DU-145) | GI50 (lung HOP-62) | GI50 (melanoma UACC-62) | GI50 (renal SN12C) | GI50 (CNS SF-539) | GI50 (breast MCF-7)
4 | no TDP1 inhibitory activity was observed | > 111000 nM | +++ | +++ | – | – | COc1cc2c(=O)n(CCCN3CCOCC3)c3c(c2cc1OCCCN1CCOCC1)C(=O)c1cc2c(cc1-3)OCO2 [Compound 25, 3-Methoxy-2-(3-morpholinopropoxy)-6-(3-morpholinopropyl)-5H-[1,3]dioxolo [4′,5′:5,6]indeno[1,2-c]isoquinoline-5,12(6H)-dione] | submicromolar | 200 ± 28 nM | 100 nM | 700 nM | 20 nM | 30 nM | 200 nM | 100 nM | 100 nM | 20 nM
5 | – | 12000 to 37000 nM | +++ | +++ | 12000 to 37000 nM | – | COc1cc2c(=O)n(CCCN3CCOCC3)c3c(c2cc1OCCCN1CCCCC1)C(=O)c1cc2c(cc1-3)OCO2 [Compound 27, 3-Methoxy-6-(3-morpholinopropyl)-2-(3-(piperidin-1-yl)propoxy)-5H-[1,3]dioxolo [4′,5′:5,6]indeno[1,2-c]isoquinoline-5,12(6H)-dione] | low micromolar | 1600 ± 230 nM | 1100 nM | 5400 nM | 200 nM | 300 nM | 9600 nM | 400 nM | 30 nM | 40 nM
